Experimental data published in PubChem BioAssay (NCI).
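Protocol summary: plate cells (96-well), add compound at 5 concentrations, incubate 48 h, interpolate endpoints linearly. Here, GI50 denotes the concentration required for 50% inhibition of growth. The concentration for full growth arrest is given as TGI.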

How the values were obtained:
Experiment in all cases: growth of human tumour cells (NCI), 48 h
[1] = system: COLO 205 colon
[2] = system: SK-MEL-28 melanoma
[3] = system: SF-539 CNS
[4] = system: TK-10 renal
[5] = system: OVCAR-3 ovarian
[6] = system: CCRF-CEM leukemia
[7] = system: HCT-15 colon
[8] = system: K-562 leukemia
[9] = system: MALME-3M melanoma
[10] = system: UACC-62 melanoma
[11] = system: UACC-257 melanoma
[12] = system: HL-60(TB) leukemia
[13] = system: OVCAR-5 ovarian
[14] = system: IGROV1 ovarian
[15] = system: UO-31 renal
[16] = system: HCC-2998 colon
[17] = system: NCI-H226 lung
[18] = system: SN12C renal
[19] = system: ACHN renal
[20] = system: MDA-MB-468 breast
[21] = system: OVCAR-4 ovarian
[22] = system: PC-3 prostate
[23] = system: SK-MEL-2 melanoma
[24] = system: MDA-MB-435
[25] = system: 786-0 renal
[26] = system: MOLT-4 leukemia
[27] = system: KM12 colon
[28] = system: BT-549 breast
[29] = system: A498 renal
[30] = system: EKVX NSCLC
[31] = system: CAKI-1 renal
[32] = system: MDA-MB-231 breast
[33] = system: RPMI-8226 leukemia
[34] = system: SR leukemia
[35] = system: SNB-19 CNS
[36] = system: SK-OV-3 ovarian
[37] = system: SNB-75 CNS
[38] = system: HOP-92 NSCLC
[39] = system: NCI-H522 lung
[40] = system: M14 melanoma
[41] = system: SK-MEL-5 melanoma
[42] = system: DU-145 prostate
[43] = system: NCI-H23 lung

## N[C@@H](CSSC[C@H](N)C(=O)Nc1ccc(OCC2CCCC2)cc1)C(=O)Nc1ccc(OCC2CCCC2)cc1
[1]
  GI50: 3.23 µM
  TGI: 12 µM
[2]
  GI50: 1260 nM
  TGI: 2550 nM
[3]
  GI50: 461 nM
  TGI: 1520 nM
[4]
  GI50: 1760 nM
  TGI: 3.23 µM
[5]
  GI50: 765 nM
  TGI: 2090 nM
[6]
  GI50: 170 nM
  TGI: 374 nM
[7]
  GI50: 230 nM
  TGI: 604 nM
[8]
  GI50: 194 nM
  TGI: 434 nM
[9]
  GI50: 6.71 µM
  TGI: 19.6 µM
[10]
  GI50: 612 nM
  TGI: 1380 nM
[11]
  GI50: 1740 nM
  TGI: 3.46 µM
[12]
  GI50: 228 nM
  TGI: 777 nM
[13]
  GI50: 1140 nM
  TGI: 2380 nM
[14]
  GI50: 292 nM
  TGI: 823 nM
[15]
  GI50: 716 nM
  TGI: 2020 nM
[16]
  GI50: 278 nM
  TGI: 793 nM
[17]
  GI50: 1720 nM
  TGI: 3.4 µM
[18]
  GI50: 460 nM
  TGI: 960 nM
[19]
  GI50: 423 nM
  TGI: 1490 nM
[20]
  GI50: 539 nM
  TGI: 1390 nM
[21]
  GI50: 389 nM
  TGI: 1650 nM
[22]
  GI50: 222 nM
  TGI: 530 nM
[23]
  GI50: 1700 nM
  TGI: 3.17 µM
[24]
  GI50: 163 nM
  TGI: 340 nM
[25]
  GI50: 1640 nM
  TGI: 3.1 µM
[26]
  GI50: 223 nM
  TGI: 501 nM
[27]
  GI50: 182 nM
  TGI: 364 nM
[28]
  GI50: 1460 nM
  TGI: 3.03 µM
[29]
  GI50: 7.15 µM
  TGI: 20.1 µM
[30]
  GI50: 427 nM
  TGI: 1540 nM
[31]
  GI50: 677 nM
  TGI: 1900 nM
[32]
  GI50: 202 nM
  TGI: 422 nM
[33]
  GI50: 738 nM
  TGI: 2430 nM
[34]
  GI50: 214 nM
  TGI: 584 nM
[35]
  GI50: 545 nM
  TGI: 1190 nM
[36]
  GI50: 570 nM
  TGI: 1730 nM
[37]
  GI50: 192 nM
  TGI: 450 nM
[38]
  GI50: 1740 nM
  TGI: 3.43 µM
[39]
  GI50: 1510 nM
  TGI: 3.03 µM
[40]
  GI50: 178 nM
  TGI: 344 nM
[41]
  GI50: 871 nM
  TGI: 2130 nM
[42]
  GI50: 339 nM
  TGI: 1150 nM
[43]
  GI50: 408 nM
  TGI: 1510 nM
